Each block holds one compound with its values, some of them ahead of it.
Assays:
A549 [1] = assay: Antiproliferative activity against human A549 cells assessed as inhibition of cell growth measured after 48 hrs by SRB assay; assay type: functional
Histone deacetylase 8 = target: T1, Histone deacetylase 8 (Homo sapiens, UniProt Q9BY41); assay: Inhibition of HDAC8 (unknown origin) using acetyl-Gly-Ala-(N-acetyl-Lys)-amino-4-methylcoumarin as substrate measured after 30 mins by fluorescence assay
T1 sequence (Q9BY41 whole entry): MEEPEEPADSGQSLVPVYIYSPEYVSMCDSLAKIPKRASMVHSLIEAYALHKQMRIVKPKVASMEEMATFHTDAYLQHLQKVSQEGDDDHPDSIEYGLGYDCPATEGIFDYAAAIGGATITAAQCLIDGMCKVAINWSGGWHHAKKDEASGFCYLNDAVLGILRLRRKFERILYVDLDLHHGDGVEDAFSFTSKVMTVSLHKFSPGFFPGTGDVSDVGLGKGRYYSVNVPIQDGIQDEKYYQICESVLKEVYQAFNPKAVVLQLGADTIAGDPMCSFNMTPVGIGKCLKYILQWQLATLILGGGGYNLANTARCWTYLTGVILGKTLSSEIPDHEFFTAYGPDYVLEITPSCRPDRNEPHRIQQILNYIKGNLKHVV

Jurkat = assay: Growth inhibition of human Jurkat cells; assay type: functional
[2] = target: von Hippel-Lindau disease tumor suppressor/Histone deacetylase 1 (Homo sapiens, UniProt Q13547+P40337); assay: Protac activity at VHL/LSD1/HDAC1/CoREST complex interaction in human HCT-116 cells assessed as HDAC1 degradation by fluorescence based assay; assay type: cell-based
[3] = target: von Hippel-Lindau disease tumor suppressor/Histone deacetylase 2 (Homo sapiens, UniProt Q92769+P40337); assay: Protac activity at VHL/LSD1/HDAC2/CoREST complex interaction in human HCT-116 cells assessed as induction of HDAC2 degradation by fluorescence based assay; assay type: cell-based
[4] = target: von Hippel-Lindau disease tumor suppressor/Histone deacetylase 3 (Homo sapiens, UniProt O15379+P40337); assay: Protac activity at VHL/LSD1/HDAC3/CoREST complex interaction in human HCT-116 cells assessed as induction of HDAC3 degradation by fluorescence based assay; assay type: cell-based
[5] = target: Protein cereblon/Histone deacetylase 8 (Homo sapiens, UniProt Q9BY41+Q96SW2); assay: PROTAC activity at HDAC8/CRBN in human A549 cells assessed as degradation of HDAC8 by Western blot analysis; assay type: cell-based
[6] = target: T2, Histone deacetylase 8 (Homo sapiens) (UniProt Q9BY41); assay: Induction of HDAC8 degradation in human A549 cells assessed as maximum degradation at 0.1 to 160 uM measured after 10 hrs by Western blot analysis relative to control; assay type: cell-based; conditions: dose 0.1-160 µM
T2 sequence (whole entry): T1 sequence (Q9BY41 whole entry)

A549 [7] = assay: Growth inhibition of human A549 cells incubated for 72 hrs by MTT assay; assay type: functional

Chain of von Hippel-Lindau disease tumor suppressor/Histone deacetylase 2 (Q92769 whole entry): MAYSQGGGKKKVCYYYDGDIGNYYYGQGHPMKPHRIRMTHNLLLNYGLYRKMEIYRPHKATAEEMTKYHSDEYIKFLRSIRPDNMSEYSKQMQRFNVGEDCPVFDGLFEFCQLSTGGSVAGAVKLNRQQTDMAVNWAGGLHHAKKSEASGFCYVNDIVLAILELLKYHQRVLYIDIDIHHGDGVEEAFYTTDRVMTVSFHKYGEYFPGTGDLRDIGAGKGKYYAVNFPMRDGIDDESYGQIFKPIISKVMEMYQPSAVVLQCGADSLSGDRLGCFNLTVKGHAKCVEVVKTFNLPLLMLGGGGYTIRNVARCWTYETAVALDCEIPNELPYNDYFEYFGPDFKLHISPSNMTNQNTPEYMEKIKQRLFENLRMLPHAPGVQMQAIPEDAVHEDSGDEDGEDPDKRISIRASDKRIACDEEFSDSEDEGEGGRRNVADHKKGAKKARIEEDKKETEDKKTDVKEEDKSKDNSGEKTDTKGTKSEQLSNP
Chain of von Hippel-Lindau disease tumor suppressor/Histone deacetylase 2 (P40337 whole entry): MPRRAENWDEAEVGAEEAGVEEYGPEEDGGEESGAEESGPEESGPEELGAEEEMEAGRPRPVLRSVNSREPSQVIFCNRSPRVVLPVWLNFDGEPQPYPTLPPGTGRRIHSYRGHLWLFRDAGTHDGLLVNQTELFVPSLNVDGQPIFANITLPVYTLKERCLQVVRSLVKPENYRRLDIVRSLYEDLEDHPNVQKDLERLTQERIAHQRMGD
Chain of Protein cereblon/Histone deacetylase 8 (Q96SW2 whole entry, one chain of several): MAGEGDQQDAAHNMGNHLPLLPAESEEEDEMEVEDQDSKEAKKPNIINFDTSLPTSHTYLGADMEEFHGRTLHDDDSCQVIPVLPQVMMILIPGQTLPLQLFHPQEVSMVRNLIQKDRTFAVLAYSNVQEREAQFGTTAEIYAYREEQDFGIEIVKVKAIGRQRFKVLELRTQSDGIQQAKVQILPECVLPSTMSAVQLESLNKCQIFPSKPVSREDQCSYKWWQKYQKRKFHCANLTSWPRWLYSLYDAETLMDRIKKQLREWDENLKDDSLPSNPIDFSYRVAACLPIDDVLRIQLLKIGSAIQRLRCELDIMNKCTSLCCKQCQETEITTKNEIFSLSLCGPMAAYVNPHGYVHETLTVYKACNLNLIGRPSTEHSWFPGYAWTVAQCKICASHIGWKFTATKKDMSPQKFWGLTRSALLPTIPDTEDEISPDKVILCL
Chain of von Hippel-Lindau disease tumor suppressor/Histone deacetylase 3 (O15379 whole entry): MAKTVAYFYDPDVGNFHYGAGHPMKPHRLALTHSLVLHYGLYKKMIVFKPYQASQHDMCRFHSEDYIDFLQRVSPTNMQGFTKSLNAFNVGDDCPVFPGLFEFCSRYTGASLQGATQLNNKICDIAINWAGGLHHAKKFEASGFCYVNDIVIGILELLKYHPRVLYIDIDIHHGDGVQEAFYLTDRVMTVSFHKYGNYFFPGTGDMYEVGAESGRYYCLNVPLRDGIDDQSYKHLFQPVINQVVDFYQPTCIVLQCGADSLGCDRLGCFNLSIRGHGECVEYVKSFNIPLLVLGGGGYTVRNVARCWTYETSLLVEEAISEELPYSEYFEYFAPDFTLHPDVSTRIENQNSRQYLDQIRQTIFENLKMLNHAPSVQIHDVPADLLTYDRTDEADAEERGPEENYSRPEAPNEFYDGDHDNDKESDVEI
Chain of von Hippel-Lindau disease tumor suppressor/Histone deacetylase 3 (P40337 whole entry): as the sequence (P40337 whole entry) above
Chain of von Hippel-Lindau disease tumor suppressor/Histone deacetylase 1 (Q13547 whole entry): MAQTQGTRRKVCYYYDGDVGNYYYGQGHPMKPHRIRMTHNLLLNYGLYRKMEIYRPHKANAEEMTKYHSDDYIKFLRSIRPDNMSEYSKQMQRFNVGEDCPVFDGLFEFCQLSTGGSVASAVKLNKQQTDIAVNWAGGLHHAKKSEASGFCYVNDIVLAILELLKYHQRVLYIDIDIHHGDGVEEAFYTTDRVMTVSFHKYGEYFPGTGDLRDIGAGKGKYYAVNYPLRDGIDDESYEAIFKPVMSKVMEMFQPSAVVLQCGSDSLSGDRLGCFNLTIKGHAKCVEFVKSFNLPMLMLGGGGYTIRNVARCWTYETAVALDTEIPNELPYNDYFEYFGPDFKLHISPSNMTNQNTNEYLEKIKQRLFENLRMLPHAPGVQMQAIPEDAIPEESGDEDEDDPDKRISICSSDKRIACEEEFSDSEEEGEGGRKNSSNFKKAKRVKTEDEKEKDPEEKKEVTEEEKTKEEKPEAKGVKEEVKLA
Chain of von Hippel-Lindau disease tumor suppressor/Histone deacetylase 1 (P40337 whole entry): as the sequence (P40337 whole entry) above

Compound: COc1ccc(Cn2ccc3ccc(C(=O)NO)cc32)cc1
GI50 (A549 [1]): 15800 nM

Compound: Cc1ncsc1-c1ccc(CNC(=O)[C@@H]2C[C@@H](O)CN2C(=O)[C@@H](NC(=O)CCCCCCCCCCC(=O)Nc2ccc(C(=O)Nc3ccccc3N)cc2)C(C)(C)C)cc1
DC50 [2]: 1000 nM
DC50 [3]: 1000 nM
DC50 [4]: 1000 nM

Compound: O=C(NO)c1cccc(-n2cc(CSc3ccccc3)nn2)c1
IC50 (Histone deacetylase 8): 53 nM
GI50 (Jurkat): 7090 nM

Results, then the compound that gave them:

IC50 (Histone deacetylase 8): 372 nM
GI50 (Jurkat): 780 nM
Compound: O=C1CCC(N2C(=O)c3cccc(NCCCCCCCCCCCNC(=O)c4cccc(SCc5cn(-c6cccc(C(=O)NO)c6)nn5)c4)c3C2=O)C(=O)N1 (stereo unspecified)

DC50 [5]: 580 nM
Emax [6]: 95%
GI50 (A549 [7]): 9550 nM
Compound: O=C1CCC(N2C(=O)c3cccc(NCc4cn(CCOCCOc5ccc(Cn6ccc7ccc(C(=O)NO)cc76)cc5)nn4)c3C2=O)C(=O)N1 (stereo unspecified)
